Measurements: patent publication US9029337B2, “Modulation of factor 7 expression” (Isis Pharmaceuticals, Inc., priority 2007, dated 2015)
Strand notation (5' to 3'): a small letter for the sugar, then the base; units joined by * are phosphorothioate-linked, units joined directly phosphodiester-linked; [ ] holds rarer units or linkages, { } end groups; capitals alone tell only the bases. e = 2'-O-(2-methoxyethyl) (MOE); [5mC] = 5-methylcytosine; d = 2'-deoxy (DNA)

Assays:
[1] = system: BALB/c mice; experiment: Tail bleeding assay; type: in vivo, mouse; conditions: mouse, in vivo
Protocol: Mice not receiving treatment with FeCl3 solution were evaluated in a tail bleeding chamber. Mice were placed into the bleeding chamber two days after the final treatment of ISIS 403102 or PBS. Mice were anesthetized in the chamber with isofluorane and a small piece of tail (approximately 4 mm from the tip) was cut with sterile scissors. The cut tail was immediately placed in a 15 mL Falcon tube filled with approximately 10 mL of 0.9% NaCl buffer solution warmed to 37° C. The blood was collected over the course of 40 minutes. The saline filled tubes were weighed both before and after bleeding.
Tail-bleeding was measured to observe whether treatment with ISIS 403102 or warfarin causes internal hemorrhage in mice. ISIS 403102 and warfarin (Coumadin®) were evaluated in the tail bleeding assay. Six groups of BALB/c mice were treated with 1.25 mg/kg, 2.5 mg/kg, 5 mg/kg, 10 mg/kg, 20 mg/kg, or 40 mg/kg of ISIS 403102, administered subcutaneously twice a week for 3 weeks. An additional 6 groups of BALB/c mice were treated with 0.5 mg/kg, 1 mg/kg, 2 mg/kg, 3 mg/kg, 4 mg/kg, and 5 mg/kg of warfarin, administered intraperioneally daily for 6 days. A separate control group of BALB/c mice was treated with PBS, administered subcutaneously twice a week for 3 weeks.
Two days after the final treatment of ISIS 403102, warfarin, or PBS, mice were placed in a tail bleeding chamber. Mice were anesthetized in the chamber with isofluorane and a small piece of tail (approximately 4 mm from the tip) was cut with sterile scissors. The cut tail was immediately placed in a 15 mL Falcon tube filled with approximately 10 mL of 0.9% NaCl buffer solution warmed to 37° C. The blood was collected over the course of 40 minutes. The saline filled tubes were weighed both before and after bleeding.
ISIS 403102 and Apixaban were evaluated in BALB/c mice. In a first group of BALB/c mice, 40 mg/kg of ISIS 403102 was administered subcutaneously twice a week for 3 weeks. An additional 3 groups of BALB/c mice were treated with 5 mg/kg and 10 mg/kg of Apixaban, administered in a single intraperitoneal dose, and 10 mg/kg of Apixaban administered as a single subcutaneous dose. A control group of BALB/c mice was treated with PBS, administered subcutaneously twice a week for 3 weeks.
Two days after the final treatment of ISIS 403102 or PBS, mice were placed in a tail bleeding chamber. Mice from the groups treated with Apixaban were analyzed 30 minutes after the single dose. Mice were anesthetized in the chamber with isofluorane and a small piece of tail (approximately 4 mm from the tip) was cut with sterile scissors. The cut tail was immediately placed in a 15 mL Falcon tube filled with approximately 10 mL of 0.9% NaCl buffer solution warmed to 37° C. The blood was collected over the course of 40 minutes. The saline filled tubes were weighed before and after bleeding.

[2] = system: human Factor 7 mRNA; experiment: Antisense inhibition of human Factor 7 mRNA in HepB3 cells, 50 nM antisense oligonucleotide, lipofectin; type: cell-based; conditions: gapmers targeted to nucleobases 4868 to 4899 of SEQ ID NO: 1, Table 8
Method in brief: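 Cells plated at 4,000 per well were transfected and harvested after approximately 24 hours of treatment. Transcript levels, measured with primer probe set RTS 2927, were normalised to total RNA by RIBOGREEN®. Values are percent inhibition relative to untreated control cells.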

[3] = system: human Factor 7 mRNA; experiment: Dose-dependent antisense inhibition of human Factor 7 in HepB3 cells, lipofectin; type: cell-based; conditions: HepB3 cells, approx. 16 hours (Table 14)
Method in brief: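 HepB3 cells (4,000/well) lipofectin-transfected with antisense oligonucleotide at 3.125 or 6.25 up to 100 nM for ~16 h. Factor 7 mRNA measured by real-time RT-PCR with primer probe set RTS 2927, adjusted to RIBOGREEN total RNA; expressed as percent inhibition versus untreated control cells.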

[4] = system: human Factor 7 mRNA; experiment: Dose-dependent antisense inhibition of human Factor 7 in HepB3 cells, electroporation; type: cell-based
Method in brief: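 HepB3 cells, 20,000/well, electroporated with gapmers at 3.125–100 μM; about 16 h treatment. Factor 7 mRNA by qRT-PCR with primer probe set RTS 2927, normalized to RIBOGREEN total RNA; percent inhibition versus untreated cells.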

[5] = 3.125 μM, approx. 16 hours (Table 15, Example 7)
[6] = 3.125 μM, approx. 16 hours (Table 16, Example 8 confirmation)
[7] = 6.25 μM, approx. 16 hours (Table 15, Example 7)
[8] = 6.25 μM, approx. 16 hours (Table 16, Example 8 confirmation)
[9] = 12.5 μM, approx. 16 hours (Table 15, Example 7)
[10] = 12.5 μM, approx. 16 hours (Table 16, Example 8 confirmation)
[11] = 25 μM, approx. 16 hours (Table 15, Example 7)
[12] = 25 μM, approx. 16 hours (Table 16, Example 8 confirmation)
[13] = 50 μM, approx. 16 hours (Table 15, Example 7)
[14] = 50 μM, approx. 16 hours (Table 16, Example 8 confirmation)
[15] = 100 μM, approx. 16 hours (Table 15, Example 7)
[16] = 100 μM, approx. 16 hours (Table 16, Example 8 confirmation)

| Compound | % Inhibition of human Factor 7 mRNA levels [2] | percent inhibition of Factor 7 mRNA, relative to untreated control cells ([3]; 3.125 nM) | percent inhibition of Factor 7 mRNA, relative to untreated control cells ([3]; 12.5 nM) | percent inhibition of Factor 7 mRNA, relative to untreated control cells ([3]; 25 nM) | percent inhibition of Factor 7 mRNA, relative to untreated control cells ([3]; 50 nM) | percent inhibition of Factor 7 mRNA, relative to untreated control cells ([3]; 100 nM) | percent inhibition of Factor 7 mRNA, relative to untreated control cells [3] | percent inhibition of Factor 7 mRNA, relative to untreated control cells [4, 5] | percent inhibition of Factor 7 mRNA, relative to untreated control cells [4, 6] | percent inhibition of Factor 7 mRNA, relative to untreated control cells [4, 7] | percent inhibition of Factor 7 mRNA, relative to untreated control cells [4, 8] | percent inhibition of Factor 7 mRNA, relative to untreated control cells [4, 9] | percent inhibition of Factor 7 mRNA, relative to untreated control cells [4, 10] | percent inhibition of Factor 7 mRNA, relative to untreated control cells [4, 11] | percent inhibition of Factor 7 mRNA, relative to untreated control cells [4, 12] | percent inhibition of Factor 7 mRNA, relative to untreated control cells [4, 13] | percent inhibition of Factor 7 mRNA, relative to untreated control cells [4, 14] | percent inhibition of Factor 7 mRNA, relative to untreated control cells [4, 15] | percent inhibition of Factor 7 mRNA, relative to untreated control cells [4, 16] | also measured |
| --- | --- | --- | --- | --- | --- | --- | --- | --- | --- | --- | --- | --- | --- | --- | --- | --- | --- | --- | --- | --- |
| 403102 (antisense CCATAGAACAGCTTCACAGG; chemistry not given here) [compound 403102] | – | – | – | – | – | – | – | – | – | – | – | – | – | – | – | – | – | – | – | Blood (g), tail bleeding ([1]; sc, 25 mg/kg): 0.06 g; Blood (g), tail bleeding ([1]; sc, 37.5 mg/kg): 0.06 g; Blood (g), tail bleeding ([1]; sc, 50 mg/kg): 0.10 g |
| 422292 (antisense eG*eT*dT*d[5mC]*dT*dG*d[5mC]*dA*dG*dG*dA*dG*d[5mC]*dG*dG*e[5mC]*e[5mC]*eT*eA*eA) [compound 422292] | 75% | 13% | 44% | 63% | 81% | 83% | 21% | 36% | 31% | 25% | 40% | 47% | 68% | 59% | 75% | 75% | 82% | 86% | 83% | – |
| 422295 (antisense e[5mC]*eG*dA*dG*dT*dT*d[5mC]*dT*dG*d[5mC]*dA*dG*dG*dA*dG*e[5mC]*eG*eG*e[5mC]*e[5mC]) [compound 422295] | 74% | 17% | 44% | 64% | 80% | 85% | 22% | 10% | – | 8% | – | 37% | – | 58% | – | 68% | – | 80% | – | – |
| 422296 (antisense e[5mC]*e[5mC]*dG*dA*dG*dT*dT*d[5mC]*dT*dG*d[5mC]*dA*dG*dG*dA*eG*e[5mC]*eG*eG*e[5mC]) [compound 422296] | 74% | 21% | 39% | 67% | 78% | 82% | 27% | 62% | 47% | 40% | 44% | 56% | 70% | 56% | 78% | 82% | 80% | 84% | 82% | – |
| COc1ccc(-n2nc(C(N)=O)c3c2C(=O)N(c2ccc(N4CCCCC4=O)cc2)CC3)cc1 [apixaban, Apixaban] | – | – | – | – | – | – | – | – | – | – | – | – | – | – | – | – | – | – | – | Blood (g), tail bleeding ([1]; BALB/c, ip, 5 mg/kg, 30 min): 0.22 g; Blood (g), tail bleeding ([1]; BALB/c, ip, 10 mg/kg, 30 min): 0.58 g; Blood (g), tail bleeding ([1]; BALB/c, sc, 10 mg/kg, 30 min): 0.04 g; bleeding compared to PBS treated mice ([1]; ip, 5 mg/kg): same amount of bleeding as PBS treated mice; bleeding compared to PBS treated mice ([1]; ip, 10 mg/kg): increased bleeding; bleeding compared to PBS treated mice ([1]; sc, 10 mg/kg): less bleeding than PBS mice |
